Laboratory results as given in patent US20250064907A1, “THERAPEUTIC VACCINES FOR TREATMENT OF CHRONIC INFLAMMATORY DISEASES” (ATHEROVAX, LLC, priority 2023, published 2025).
“Also recorded” adds a separate entry of the source. Where no end group is shown, it is not given here.

Legend:
[1] = system: Rat Colitis Model of Ulcerative Colitis; test: Rat colitis model of ulcerative colitis: visual and gross observations; assay type: in vivo
Procedure: (§1) Rats were vaccinated with a human sTNFR2 peptide, DFALPVEKPLCLOR (SEQ ID NO: 18), targeting the human sTNFR2 peptide. The rats were injected with 25 μg of the peptide subcutaneously with 25 μg Alum as adjuvant in PBS 10 days before initiating colitis. The studies were performed in accordance with the recommendations of the Animal Care and Use Committee of Tbilisi State Medical University. Briefly, the colitis was induced by introduction of 4% acetic acid at 24-hour intervals for three days into the colon under light anesthesia (50 mg/kg ketamine HCl and 5 mg/kg xylaxine). Injections were intrarectal through 2 mm diameter, 6-8 cm long polyethylene catheter to deliver 1 mL solution. See Cagin et al., Exp. Ther. Med. 12 (5): 2958-2964 (2016).
The study design included 4 treatment groups:
Group B: alum only 10 day prior, followed by colitis
Group C: sTNFR2 peptide (SEQ ID NO: 18)+alum 10 day prior, followed by colitis
Group D: no vaccine and no colitis

TNFα = TNFα ELISA in rat colitis model; assay type: in vivo; details: for tissue resident TNFα: colon tissue; for reduction in TNFα: vaccinated animals
Procedure: as §1
(§2) TNFα and IL-6 cytokines were measured with ELISA kits according to the manufacturer's instructions (Invitrogen). The ELISA plates were developed with tetramethylbenzidine (TMB) substrate and absorbance was read at 450 nm using an ELx808 Ultra Microplate Reader (BioTek Instruments GmbH, Lucerne, Switzerland). […] Reduction in TNFα is consistent with loss of sTNFR2 binding.
(§3) All values reported are mean and standard error of the mean. Group comparisons are either two-tailed t-test or ANOVA calculated using Excel.

IL-6 = IL-6 ELISA in rat colitis model; assay type: in vivo; details: for tissue resident IL-6: colon tissue
Procedure: as §1, §2, §3

rat colon tissue = test: Colon histology, rat colitis model; assay type: in vivo; details: for colon micrographs (H&E, Masson's trichrome): tissue loss and inflammation: administered 10 days prior to initiating colitis, result in words, listed as sTNR2 peptide
Procedure: as §1
Colon samples were fixed in 10% neutral buffered formalin for 24 hours at room temperature and embedded in paraffin. Tissue sections, 5 μm thick, were stained with hematoxylin and eosin (H&E), Masson's trichrome, and Periodic Acid-Schiff (PAS) according to the manufacturer's protocols. Histological evaluation of colons were assigned scores, (a score of 1 is normal and a score of 4 is severe pathology) for the number of animals with pathology >2, average pathology score, pathology distribution, and average inflammatory score (Table 7).

[2] = system: regulatory T cells (Tregs); test: FoxP3 immunohistochemistry of colon, rat ulcerative colitis model; assay type: in vivo; details: 75 μg peptide and alum adjuvant one week prior to colitis; colon collected 8 days after initiation; vs unvaccinated
Procedure: These studies were performed in accordance with the recommendations of the Animal Care and Use Committee of Tbilisi State Medical University. Colitis was initiated following introduction of 4% acetic acid at 24-hour intervals for three days into colon under light anesthesia (50 mg/kg ketamine HCl and 5 mg/kg xylaxine). Injections were intrarectal through 2 mm diameter, 6-8 cm long polyethylene catheter to deliver 1 mL solution.
Colon samples were fixed in 10% neutral buffered formalin for 24 hours at room temperature and embedded in paraffin. Tissue sections 5 μm thick were stained with hematoxylin and eosin (H&E), Masson's trichrome, and Periodic Acid-Schiff stain (PAS) according to the manufacturer's protocols. The immunohistochemistry utilized a FoxP3 rabbit monoclonal antibody, ab215206, obtained from Abcam (Boston, MA) followed by a goat anti-rabbit secondary antibody conjugated with peroxidase.

thrombus = test: Inferior vena cava ligation thrombus, wet weight; assay type: in vivo, Lewis rats; details: for Thrombus (wet weight): 4 hours after ligation, saline 0.015 ± 0.001
Procedure: (§4) Adult Lewis rats weighing 200-250 g were randomly distributed into three treatment groups with 4 male and 4 female rats in each group. Group 1 received 1.0 mL saline subcutaneously on days 0 and 14. Group 2 received 1.0 mL saline with 0.025 mg AtheroVax peptide (SEQ ID NO: 18) and 0.025 mg aluminum hydroxide adjuvant on days 0 and 14. Group 3 received 1.0 mL saline with 0.075 mg AtheroVax peptide (SEQ ID NO: 18) and 0.075 mg aluminum hydroxide adjuvant on days 0 and 14. […] The abdominal cavity was sutured immediately after the ligation. The rats were euthanized 4 hours after dressing.
(§5) The thrombus was removed from the rats and wet weight determined. In addition, blood was recovered from the rats and coagulation parameters prothrombin time (PT), thrombin time (TT), and fibrinogen were measured.
(§6) Statistical analysis of mean and standard deviation for male, female, and combined values were calculated for each of the coagulation parameters. Pairwise comparisons using the students T-test were performed using Excel. Significance was determined if the p-value is less than 0.05.

[3] = Blood coagulation parameters after inferior vena cava ligation; assay type: in vivo, Lewis rats; details: across doses, result in words
Procedure: as §4, §5, §6

[4] = circulating blood, vaccinated vs control animals, result in words
[5] = result in words, listed as AtheroVax
[6] = score of 1 is normal, 4 is severe pathology, colitis only group 4

## DFALPVE/KPLCLQR (DFALPVEKPLCLQR; not fully specified; listed as Homo sapiens) [AtheroVax peptide (SEQ ID NO: 18)]
[1]; rats, 25 μg peptide with 25 μg Alum 10 days before colitis
  elevations in body temperature: significantly prevented
[1]; rats, 25 μg peptide with 25 μg Alum 10 days before colitis, visual observations
  loss of body weight: significantly prevented
[1]; rats, peptide + alum 10 days before colitis, compared with Group A (unvaccinated)
  gross colon observations (hyperemic, edematous, thickened, sharply increased volume): not associated
[1]; rats, subcutaneous injection 10 days before 4% acetic acid colitis, peptide 25 μg with 25 μg Alum
  Bleeding: Hemoccult Negative
[1]; rats, subcutaneous injection 10 days before 4% acetic acid colitis, peptide 25 μg with 25 μg Alum, listed as sTNFR2 peptide (SEQ ID NO: 18)+alum
  Stool: Normal
[1]; rats, subcutaneous injection 10 days before 4% acetic acid colitis, peptide 25 μg with 25 μg Alum, listed as sTNR2 peptide (SEQ ID NO: 18)+alum adjuvant
  Stool: normal stools
[1]; vaccinated vs control animals, result in words
  integrity of the colon and outcomes in the rat colitis model: preserved integrity oof the colon and improved outcomes
TNFα; ELISA, rat colitis model, injection 10 days before colitis, colitis only group 29.20 ± 0.65
  TNFα (mean ± SEM): 1.12 ± 0.13
TNFα; [4]
  circulating levels of TNFα: significantly lower
TNFα; result in words
  tissue resident TNFα: significantly lower
  reduction in TNFα: significant reductions
TNFα; [5]
  tissue resident TNFα: significant reductions
TNFα; result in words, listed as sTNFR2 peptide (SEQ ID NO: 18)+alum
  reduction in TNFα: significant reduction
IL-6; ELISA, rat colitis model, injection 10 days before colitis, colitis only group 6.46 ± 0.22
  IL-6 (mean ± SEM): 1.76 ± 0.13
IL-6; [4]
  circulating levels of IL-6: significantly lower
IL-6; result in words
  tissue resident IL-6: significantly lower
IL-6; [5]
  tissue resident IL-6: significant reductions
IL-6; vaccinated animals, result in words
  reduction in IL-6: significant reductions
Rat colon tissue
  colon micrographs (H&E, Masson's trichrome): tissue loss and inflammation: significant protection against inflammation
Rat colon tissue; (SEQ ID NO: 18) and alum adjuvant
  colon micrographs (H&E, Masson's trichrome): tissue loss and inflammation: significant protective effect
Rat colon tissue; rat colitis model, colon histology
  Number animals with pathology >2 (1-5): 5
Rat colon tissue; [6]
  Average Inflammatory Score (1-4): 2
  Average Pathology Score (1-4): 1
  Pathology Distribution (1-4): 2
[2]
  intensity of FoxP3 (Treg) staining in colon: less intense; also recorded: do not stain as intensely
  number of FoxP3 positive cells in colon: fewer cells; also recorded: reduced; also recorded: lower frequencies
thrombus; Grp. 2, 25 μg peptide + adjuvant days 0 and 14
  Thrombus (wet weight): 0.011±0.001 grams
thrombus; Grp. 3, 75 μg peptide + adjuvant days 0 and 14
  Thrombus (wet weight): 0.007±0.001 grams
thrombus; across doses, treatment prior to initiation of thrombosis, result in words
  thrombus weight: dose dependent smaller
[3]
  fibrinogen: elevation
  prothrombin times: increased
  thrombin time: decreased
